Test results published in PubChem BioAssay (NCI).
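Assay format: 96-well plates, 48-hour exposure. Definition used: TGI = concentration required for complete inhibition of growth.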

Experiments:
Test in all cases: NCI tumour cell line growth inhibition, 48 h
SF-539 CNS = tested on: SF-539 CNS
A549 NSCLC = tested on: A549 NSCLC
786-0 renal = tested on: 786-0 renal
SNB-75 CNS = tested on: SNB-75 CNS
UACC-257 melanoma = tested on: UACC-257 melanoma
NCI/ADR-RES ovarian = tested on: NCI/ADR-RES ovarian
M14 melanoma = tested on: M14 melanoma
SF-295 CNS = tested on: SF-295 CNS
SW-620 colon = tested on: SW-620 colon
IGROV1 ovarian = tested on: IGROV1 ovarian

| Compound | TGI (SF-539 CNS) [µM] | TGI (A549 NSCLC) [µM] | TGI (786-0 renal) [µM] | TGI (SNB-75 CNS) [µM] | TGI (UACC-257 melanoma) [µM] | TGI (NCI/ADR-RES ovarian) [µM] | TGI (M14 melanoma) [µM] | TGI (SF-295 CNS) [µM] | TGI (SW-620 colon) [µM] | TGI (IGROV1 ovarian) [µM] |
| --- | --- | --- | --- | --- | --- | --- | --- | --- | --- | --- |
| C/C(=N\O)c1ccc(Nc2c3ccccc3nc3occc23)cc1 | 0.732 | > 11.9 | 3.3 | 3.78 | > 44.6 | 0.484 | 3.5 | 5.26 | > 50 | 8.59 |
| Cc1cc(S(=O)(=O)NC(=NCC(=O)NN)NN)c(S)cc1Cl | > 10 | > 10 | > 10 | > 10 | > 10 | > 10 | > 10 | > 10 | > 10 | > 10 |
| COc1cc2c(cc1OC)C1Cc3ccccc3CN1CCC2 (stereo not given) | > 100 | > 100 | > 100 | > 100 | > 100 | > 100 | > 100 | > 100 | > 100 | > 100 |
| O=C(CCCN1CCc2[nH]c3cc(F)ccc3c2C1)c1ccc(F)cc1 | 30.5 | 29.5 | 26.6 | 22.9 | 28.8 | 36.1 | 22.2 | 32.7 | > 100 | 30.2 |
| CC(=O)Nc1ncc2c(n1)-c1ccccc1OC2 | > 100 | > 100 | > 100 | > 100 | > 100 | > 100 | > 100 | > 100 | > 100 | > 100 |
| C[C@@H](C[C@@H](O)[C@H](O)C(C)(C)O)[C@H]1CC=C2[C@]3(C)[C@H](O)C[C@H]4C(C)(C)[C@H](O)CC[C@]4(C)[C@H]3CC[C@@]21C | 35.7 | 26.4 | 28.2 | 39.1 | 32 | 28.1 | 28.6 | 28.6 | 32.3 | 30.1 |
